Results taken from article PMC10917278, “Structural insights into the modulation Of SOD1 aggregation By a fungal metabolite Phialomustin-B: Therapeutic potential in ALS” (PLOS ONE, 2024).

How the values were obtained:
[1] = biological target: T1, SOD1^G10P (Homo sapiens, UniProt P00441, G11P); test: MST binding assay, site-specific mutant SOD1^G10P; details: PBS buffer, mutant 25 nM, PB 30.5 nM to 250 μM, 25 °C, SEM n = 3, read-out: binding affinity Kd
T1 construct: His-tag (cleaved yes); made in house; host or cells: E. coli BL21-DE3
T1 sequence (P00441 whole entry G11P): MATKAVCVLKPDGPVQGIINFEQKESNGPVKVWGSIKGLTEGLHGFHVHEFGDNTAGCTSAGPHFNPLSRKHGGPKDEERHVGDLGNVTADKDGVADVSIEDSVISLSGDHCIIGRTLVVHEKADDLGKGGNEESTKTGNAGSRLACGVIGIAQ
Method: (§1) To further validate the binding of PB to SOD1, site-directed mutagenesis was performed for the interacting residues at the binding sites of PB. The point mutations generated on the SOD1 protein are K9F, G10P, L42R, and A123F. The MST assay was carried out on these mutants against PB (Fig 5). The dose-response curve with the highest signal-to-noise ratio, high response amplitude, and lowest error rate was selected for measuring the binding affinity (Kd) value. […] Binding at the electrostatic loop is affected majorly by mutating residues at A123 to phenylalanine and L42 to arginine. […] Taken together, the binding affinities of these mutants confirm the ligand bindings at these sites of SOD1 are specific.
(§2) Fig 5 MST interaction analysis of fluorescently labeled SOD1 mutants against PB. The binding of PB to fluorescently Cys-labeled SOD1- variants is quantified in PBS buffer. The concentration of PB varied from 30.5 nM to 250 μM, while the respective mutants were kept constant at 25 nM. MST experiments were conducted at 20% LED excitation and medium MST power at 25 °C. […] Error bars indicate the standard error of the mean, SEM (n = 3). […] The ligand PB is printed only in the titles of panels a-d, so the mutant names are used as the substance labels.
(§3) Binding studies were performed for SOD1^WT and the ligands using microscale thermophoresis (MST). […]

[2] = biological target: T2, SOD1^L42R (Homo sapiens, UniProt P00441, L43R); test: MST binding assay, site-specific mutant SOD1^L42R; details: PBS buffer, mutant 25 nM, PB 30.5 nM to 250 μM, 25 °C, SEM n = 3, read-out: binding affinity Kd
T2 construct: His-tag (cleaved yes); made in house; host or cells: E. coli BL21-DE3
T2 sequence (P00441 whole entry L43R): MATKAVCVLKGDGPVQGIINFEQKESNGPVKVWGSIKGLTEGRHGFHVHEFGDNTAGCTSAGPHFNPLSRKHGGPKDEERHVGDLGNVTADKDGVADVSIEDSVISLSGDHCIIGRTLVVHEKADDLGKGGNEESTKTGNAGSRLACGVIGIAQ
Method: as §1, §2, §3

Kd [1]: 15.9 ± 2.65 µM
Kd [2]: 225 ± 4.29 µM
Compound: CCCC[C@H](C)/C=C(C)/C=C/C(=O)O [PB, (S, 2E, 4E)-4,6-dimethyldeca-2,4-dienoic acid]
